Results as given in ChEMBL document CHEMBL1131980, “New class of biphenylene dibenzazocinones as potent ligands for the human EP1 prostanoid receptor” (Bioorg Med Chem Lett, 1999).

Assays:
[1] = molecular target: T1, Prostaglandin E2 receptor EP3 subtype (Homo sapiens, UniProt P43115); experiment: Affinity at human EP3 receptor.
T1 sequence (P43115 whole entry): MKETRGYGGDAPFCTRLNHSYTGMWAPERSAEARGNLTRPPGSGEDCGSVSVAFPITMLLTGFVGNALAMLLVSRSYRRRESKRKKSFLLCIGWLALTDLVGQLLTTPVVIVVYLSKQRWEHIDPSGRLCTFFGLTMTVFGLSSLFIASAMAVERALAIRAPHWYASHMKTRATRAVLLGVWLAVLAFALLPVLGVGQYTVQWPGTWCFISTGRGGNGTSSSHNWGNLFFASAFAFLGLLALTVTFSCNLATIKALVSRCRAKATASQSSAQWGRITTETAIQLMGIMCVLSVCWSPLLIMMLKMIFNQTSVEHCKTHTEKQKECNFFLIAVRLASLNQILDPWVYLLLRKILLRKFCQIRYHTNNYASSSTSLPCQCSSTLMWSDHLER

[2] = molecular target: T2, Prostaglandin E2 receptor EP1 subtype (Homo sapiens, UniProt P34995); experiment: Affinity at human EP1 receptor.
T2 sequence (P34995 whole entry): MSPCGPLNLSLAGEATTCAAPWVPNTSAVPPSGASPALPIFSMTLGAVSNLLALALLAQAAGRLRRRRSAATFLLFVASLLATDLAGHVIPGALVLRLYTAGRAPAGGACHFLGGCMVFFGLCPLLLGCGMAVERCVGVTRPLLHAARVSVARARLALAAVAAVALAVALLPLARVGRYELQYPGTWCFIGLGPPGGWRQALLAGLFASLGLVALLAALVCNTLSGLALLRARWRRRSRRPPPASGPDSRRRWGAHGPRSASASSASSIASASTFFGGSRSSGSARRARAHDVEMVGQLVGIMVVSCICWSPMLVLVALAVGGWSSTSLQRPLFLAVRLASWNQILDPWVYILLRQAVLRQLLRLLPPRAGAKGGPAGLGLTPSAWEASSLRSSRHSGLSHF

[3] = molecular target: Prostaglandin E2 receptor EP4 subtype (Homo sapiens, UniProt P35408); experiment: Affinity at human EP4 receptor.
[4] = molecular target: Prostaglandin E2 receptor EP2 subtype (Homo sapiens, UniProt P43116); experiment: Affinity at human EP2 receptor.
Thromboxane A2 receptor = molecular target: T3, Thromboxane A2 receptor (Homo sapiens, UniProt P21731); experiment: Compound was evaluated for its secondary binding affinity to human TP receptors by using Aequorin luminescence-based functional calcium assay
T3 sequence (P21731 whole entry): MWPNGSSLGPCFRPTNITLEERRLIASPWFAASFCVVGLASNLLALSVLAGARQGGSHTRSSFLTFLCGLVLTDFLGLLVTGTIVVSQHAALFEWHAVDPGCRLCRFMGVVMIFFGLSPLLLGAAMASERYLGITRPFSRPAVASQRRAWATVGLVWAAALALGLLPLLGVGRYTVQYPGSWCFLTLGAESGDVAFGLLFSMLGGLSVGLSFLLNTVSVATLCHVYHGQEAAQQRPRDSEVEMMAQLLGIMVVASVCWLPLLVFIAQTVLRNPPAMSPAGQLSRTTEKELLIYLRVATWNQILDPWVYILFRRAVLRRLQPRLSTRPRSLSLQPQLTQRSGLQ

[5] = molecular target: T4, Prostaglandin D2 receptor (Homo sapiens, UniProt Q13258); experiment: Compound was evaluated for its secondary binding affinity to human DP receptors by using Aequorin luminescence-based functional calcium assay
T4 sequence (Q13258 whole entry): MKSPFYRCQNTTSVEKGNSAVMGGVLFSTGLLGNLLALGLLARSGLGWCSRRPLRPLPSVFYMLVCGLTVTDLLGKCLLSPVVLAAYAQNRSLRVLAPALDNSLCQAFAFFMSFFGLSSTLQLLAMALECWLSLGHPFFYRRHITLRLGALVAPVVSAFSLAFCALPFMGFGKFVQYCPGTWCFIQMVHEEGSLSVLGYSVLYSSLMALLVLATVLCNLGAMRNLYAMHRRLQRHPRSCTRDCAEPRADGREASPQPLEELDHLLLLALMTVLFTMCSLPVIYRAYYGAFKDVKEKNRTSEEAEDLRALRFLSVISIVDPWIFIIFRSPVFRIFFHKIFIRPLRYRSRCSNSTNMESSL

Prostacyclin receptor = Prostacyclin receptor (Homo sapiens, UniProt P43119); experiment: Compound was evaluated for its secondary binding affinity to human IP receptors by using Aequorin luminescence-based functional calcium assay
[6] = molecular target: Prostaglandin F2-alpha receptor (Homo sapiens, UniProt P43088); experiment: Compound was evaluated for its secondary binding affinity to human FP receptors by using Aequorin luminescence-based functional calcium assay
[7] = Compound was evaluated for ratio of Ki's of EP3 and EP1

Sequence of Prostaglandin E2 receptor EP4 subtype (P35408 whole entry): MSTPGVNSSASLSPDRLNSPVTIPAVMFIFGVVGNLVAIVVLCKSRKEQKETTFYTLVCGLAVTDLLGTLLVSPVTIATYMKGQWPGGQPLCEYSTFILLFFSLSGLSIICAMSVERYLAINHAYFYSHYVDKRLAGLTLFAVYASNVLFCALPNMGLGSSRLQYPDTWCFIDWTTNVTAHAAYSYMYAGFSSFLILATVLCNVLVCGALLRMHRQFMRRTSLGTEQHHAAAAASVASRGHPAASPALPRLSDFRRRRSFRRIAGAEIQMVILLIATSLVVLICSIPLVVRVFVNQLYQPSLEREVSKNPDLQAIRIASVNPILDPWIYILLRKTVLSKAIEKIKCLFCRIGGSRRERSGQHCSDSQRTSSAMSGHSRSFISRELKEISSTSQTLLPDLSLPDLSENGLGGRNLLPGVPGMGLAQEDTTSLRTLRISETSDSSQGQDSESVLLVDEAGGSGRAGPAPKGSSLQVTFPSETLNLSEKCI
Sequence of Prostaglandin F2-alpha receptor (P43088 whole entry): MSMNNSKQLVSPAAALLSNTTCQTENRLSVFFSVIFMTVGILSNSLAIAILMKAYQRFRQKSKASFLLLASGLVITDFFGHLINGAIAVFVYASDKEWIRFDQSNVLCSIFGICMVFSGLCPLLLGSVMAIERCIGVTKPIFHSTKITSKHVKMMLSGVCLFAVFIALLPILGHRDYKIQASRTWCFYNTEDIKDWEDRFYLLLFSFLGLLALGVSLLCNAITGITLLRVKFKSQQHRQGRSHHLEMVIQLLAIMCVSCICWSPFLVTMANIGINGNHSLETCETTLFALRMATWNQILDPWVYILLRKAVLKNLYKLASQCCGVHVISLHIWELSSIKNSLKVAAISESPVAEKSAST
Sequence of Prostaglandin E2 receptor EP2 subtype (P43116 whole entry): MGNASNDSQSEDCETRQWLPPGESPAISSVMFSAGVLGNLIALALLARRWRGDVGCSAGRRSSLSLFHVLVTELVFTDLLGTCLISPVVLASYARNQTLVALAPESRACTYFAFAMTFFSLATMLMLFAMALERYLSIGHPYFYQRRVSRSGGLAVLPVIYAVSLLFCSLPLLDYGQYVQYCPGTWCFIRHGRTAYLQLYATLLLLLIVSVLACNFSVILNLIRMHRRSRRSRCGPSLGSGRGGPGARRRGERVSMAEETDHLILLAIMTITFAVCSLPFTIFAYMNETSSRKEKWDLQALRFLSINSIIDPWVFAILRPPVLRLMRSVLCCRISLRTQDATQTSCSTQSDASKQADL
Sequence of Prostacyclin receptor (P43119 whole entry): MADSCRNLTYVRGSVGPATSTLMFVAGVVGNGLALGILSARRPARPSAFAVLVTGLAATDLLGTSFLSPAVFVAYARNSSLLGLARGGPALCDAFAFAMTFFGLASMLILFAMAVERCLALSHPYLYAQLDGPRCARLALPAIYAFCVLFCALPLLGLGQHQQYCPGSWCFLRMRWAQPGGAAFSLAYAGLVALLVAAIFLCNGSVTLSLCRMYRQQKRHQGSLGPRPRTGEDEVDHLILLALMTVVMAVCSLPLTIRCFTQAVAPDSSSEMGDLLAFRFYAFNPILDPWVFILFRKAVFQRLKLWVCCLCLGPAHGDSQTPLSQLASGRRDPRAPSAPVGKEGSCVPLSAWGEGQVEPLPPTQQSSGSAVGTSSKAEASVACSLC

Ki [1] [µM] | Ki [2] [µM] | Ki [3] [µM] | Ki [4] [µM] | Ki (Thromboxane A2 receptor) [µM] | Ki [5] [µM] | Ki (Prostacyclin receptor) [µM] | Ki [6] [µM] | Ratio [7] | SMILES
4.7 | 0.14 | 6.9 | 21 |  |  |  |  |  | C[C@H](NC(=O)NS(=O)(=O)c1ccccc1-c1ccc(CN2C(=O)c3ccccc3CCc3ccccc32)cc1)c1ccccc1
13 | 0.2 | > 100 | > 100 |  |  |  |  |  | O=C(NCc1ccccc1)NS(=O)(=O)c1ccccc1-c1ccc(CN2C(=O)c3ccccc3CCc3ccccc32)cc1
2.8 | 0.057 | > 100 | 14 |  |  |  |  |  | O=C(Cc1ccccc1)NS(=O)(=O)c1ccccc1-c1ccc(CN2C(=O)c3ccccc3CCc3ccccc32)cc1
 | 10.8 |  |  |  |  |  |  |  | O=C(NCCc1cccs1)NS(=O)(=O)c1ccccc1-c1ccc(CN2C(=O)c3ccccc3Oc3ccccc32)cc1
> 100 | 0.4 | > 100 | > 100 |  |  |  |  |  | O=C(NCCCc1ccccc1)NS(=O)(=O)c1ccccc1-c1ccc(CN2C(=O)c3ccccc3CCc3ccccc32)cc1
4.7 | 0.14 | 7 | 22 |  |  |  |  |  | O=C(COc1ccccc1)NS(=O)(=O)c1ccccc1-c1ccc(CN2C(=O)c3ccccc3CCc3ccccc32)cc1
 | 1.2 |  |  |  |  |  |  |  | O=C(NCCc1cccs1)NS(=O)(=O)c1ccccc1-c1ccc(Cn2c(=O)c3ccccc3c3ccccc32)cc1
> 100 | 0.36 | > 100 | > 100 |  |  |  |  |  | CN(C(=O)NCCc1ccccc1)S(=O)(=O)c1ccccc1-c1ccc(CN2C(=O)c3ccccc3CCc3ccccc32)cc1
> 100 | 51 | > 100 | > 100 |  |  |  |  |  | O=C1c2ccccc2CCc2ccccc2N1Cc1ccc(-c2ccccc2S(=O)(=O)N(Cc2ccccc2)C(=O)NCCc2ccccc2)cc1
3.6 | 0.047 | 13 | > 100 |  |  |  |  |  | O=C(CCc1ccccc1)NS(=O)(=O)c1ccccc1-c1ccc(CN2C(=O)c3ccccc3CCc3ccccc32)cc1
4 | 0.01 | 5 | 23 | 3 | 2.4 | 21 | 5 |  | CC(C)(C(=O)NS(=O)(=O)c1ccccc1-c1ccc(CN2C(=O)c3ccccc3CCc3ccccc32)cc1)c1ccccc1
1.2 | 0.77 | 4.7 | > 100 |  |  |  |  | 1.7 | CC(C)(C)NC(=O)NS(=O)(=O)c1ccccc1-c1ccc(CN2C(=O)c3ccccc3CCc3ccccc32)cc1
6 | 0.22 | > 100 | > 100 |  |  |  |  |  | CCCCNC(=O)NS(=O)(=O)c1ccccc1-c1ccc(CN2C(=O)c3ccccc3CCc3ccccc32)cc1
 | 2.8 |  |  |  |  |  |  |  | O=C(NCCc1cccs1)NS(=O)(=O)c1ccccc1-c1ccc(CN2Cc3ccccc3CCc3ccccc32)cc1
5 | 0.017 | 1.1 | 23 | 2.1 | 2.87 | 52 | 6.2 |  | CN(CCc1ccccc1)C(=O)NS(=O)(=O)c1ccccc1-c1ccc(CN2C(=O)c3ccccc3CCc3ccccc32)cc1
2.2 | 0.1 | > 100 | > 100 |  |  |  |  |  | O=C(NCCc1cccs1)NS(=O)(=O)c1ccccc1-c1ccc(CN2C(=O)c3ccccc3CCc3ccccc32)cc1
4.6 | 21 | 19 | 16 |  |  |  |  |  | O=C(Nc1ccccc1)NS(=O)(=O)c1ccccc1-c1ccc(CN2C(=O)c3ccccc3CCc3ccccc32)cc1
1.3 | 0.012 | 4 | 11 | 1.5 | 2 | 13 | 3.8 |  | CO[C@](C(=O)NS(=O)(=O)c1ccccc1-c1ccc(CN2C(=O)c3ccccc3CCc3ccccc32)cc1)(c1ccccc1)C(F)(F)F
1.6 | 0.05 | 3 | 13 |  |  |  |  |  | CO[C@@](C(=O)NS(=O)(=O)c1ccccc1-c1ccc(CN2C(=O)c3ccccc3CCc3ccccc32)cc1)(c1ccccc1)C(F)(F)F
51.2 | 0.12 | > 100 | > 100 |  |  |  |  |  | O=C(NCCc1ccccc1)NS(=O)(=O)c1ccccc1-c1ccc(CN2C(=O)c3ccccc3CCc3ccccc32)cc1
5 | 0.016 | 20 | > 100 | 2.8 | 2.8 | 28.3 | 5.3 |  | CC(C(=O)NS(=O)(=O)c1ccccc1-c1ccc(CN2C(=O)c3ccccc3CCc3ccccc32)cc1)c1ccccc1 (centres undefined)
16 | 0.018 | 2.4 | > 100 | 1.1 | 4 | 21 | 1.3 |  | CC(C)(Cc1ccccc1)C(=O)NS(=O)(=O)c1ccccc1-c1ccc(CN2C(=O)c3ccccc3CCc3ccccc32)cc1
2.4 | 0.15 | 6 | 11 |  |  |  |  |  | O=C(NS(=O)(=O)c1ccccc1-c1ccc(CN2C(=O)c3ccccc3CCc3ccccc32)cc1)OCc1ccccc1
